In series [1] the target is human GLP1R (hGLP1R) (Homo sapiens, UniProt P43220). The series is described as follows: Human GLP1R cAMP agonist assay (GloSensor). The format is cell-based. The note with it: for Emax: read-out: Emax mean; for EC50: intracellular cAMP, mean n=3 where SEM is given. The method, then:
(§1) Compounds 1 to 31 were tested in the following cellular assays that measure the intracellular cAMP concentration, beta-arrestin recruitment and receptor internalization. The cAMP is generated by the activation of GLP1R. The cAMP data obtained is shown in Table 1 (where S.E.M. is included, mean n=3 independent experiments+/−S.E.M). Beta-arrestin is recruited upon activation of GLP1R and the data obtained are shown in Table 2 (mean n=2 independent experiments, +/−S.D). The extent to which the GLP1R is internalized into the cell and away from the plasma membrane following activation is also shown in Table 2 (mean n=2 independent experiments, +/−S.D). EC50 for each assay is defined as the concentration of the compound that leads to half of the maximum response (after baseline correction). Emax is defined as the maximum response observed for the test compound, normalized to the maximum response observed for the endogenous ligand (GLP1(7-36)) to GLP1R.
Human GLP1R cAMP Agonist Assay
The agonist activity of compounds was determined using the GloSensor™ cAMP Assay (Promega Corp.), which measures changes in the intracellular concentration of cAMP after ligand activation of GPCRs. The assay uses a biosensor encoded by pGloSensor™-22F cAMP plasmid (Promega, cat #E2301) with cAMP binding domains fused to a mutant form of Photinus pyralis luciferase. Binding to cAMP causes conformational changes that promote large increases in light output, which can be measured by a luminescence detector. HEK293-SNAP-hGLP1R-GloSensor cells stably overexpressing the human GLP1 receptor (hGLP1R) and pGloSensor™-22F were seeded in white 384-well poly-D-Lysine coated plates (Greiner Bio One, cat #781945) in CO2-independent media (Gibco cat #18045-088 with 1.0% FBS, 2 mM L-glutamine, penicillin and streptomycin) and incubated overnight at 37° C., 5% CO2 with humidity. The assay was started the following morning by adding an equal volume of CO2-independent media containing 4% v/v dilution of the GloSensor substrate (Promega, cat #E1291) to all wells. The cell plate was incubated at rt for 2 h in the dark. The Biomek 7 (Beckman Coulter) instrument was used for the liquid handling steps. To generate duplicate dose response curves, 3-fold serially diluted compounds were added in to the cell assay plate to a final volume of 60 μL with final concentrations ranging from 30 μM through 0.06 μM in CO2-independent media containing 0.1% BSA, 0.5 mM IBMX and 0.4% DMSO. In the same plate and assay buffer as the tested compounds, were EC100 control wells containing GLP1 (7-36) peptide (Bachem, cat #H-6795) at a final concentration of 2 nM and also EC0 control wells containing no peptide. This plate was incubated at rt in the dark for 12 min after adding the compounds to the cells. Luminescence was then measured with an Envision 2104 Multilabel reader with “TRF Light Unit, 337 nm” (PerkinElmer) using the Ultra-Sensitive protocol setting “384-well US luminescence detector” with the 384-well luminescence aperture, 0.1 seconds per well. cAMP activity was calculated as percent of the GLP1 (7-36) EC100 control wells: [(sample signal−mean EC0 signal)/(mean EC100 of GLP1 (7-36) signal−mean EC0 signal)}*100. Curve fitting for EC50 determinations was performed in the Helios module of the software package DAVID. The 4-parameter logistic model, Hill slope was used: y=Ainf+(A0−Ainf)/(1+(x/AC50)^Hill Slope) where y is the functional response; x is the compound concentration; A0 is the minimum value (at 0 dose); Ainf is the maximum value (at infinite dose); AC50 corresponds to the point of inflection (i.e. the point on the sigmoid shaped curve halfway between A0 and Ainf). The EC50 value was represented by the AC50 value calculated from Helios in μM. Emax is the maximal activity detected within the concentration range, derived from the fitted curve. […]

For series [2], the target named is human GLP1R (Homo sapiens, UniProt P43220). The series is described as follows: Human GLP1R DERET internalization assay. It is filed as cell-based. The following applies: HEK293-SNAP-hGLP1R-GloSensor cells; for EC50: mean n=2; for Emax: relative to GLP1(7-36). The method, then: as §1
The extent to which agonists internalize the human GLP1R was determined based on an optimized version of a RealTime FRET-based ‘DERET’ (Dissociation Enhanced Resonance Energy Transfer) assay. The technology relies on labeling of the SNAP-tagged GPCR with a SNAP-Lumi-Terbium (donor fluorophore, Cisbio, cat #SSNPTBD). The compounds are incubated with the cells over-expressing the GPCR of interest in the presence of an excess of fluorescein (acceptor fluorophore). When the GPCR is on the cell surface, the donor signal is quenched by the acceptor and the donor/acceptor ratio is low. As the GPCR internalizes, the donor signal is no longer quenched, and the acceptor is no longer excited so the donor/acceptor ratio increases.
HEK293-SNAP-hGLP1R-GloSensor cells (stably overexpressing SNAP-tagged hGLP1R) were seeded overnight in white 384-well poly-D-Lysine coated plates (Greiner Bio One, cat #781945) in regular DMEM growth medium (Gibco, cat #11965-092, 10% heat-inactivated FBS, 10 mM HEPES, 1× penicillin/streptomycin, 0.5 mg/mL geneticin (Gibco, cat #10131-035) and 0.25 mg/mL hygromycin B (Invitrogen, cat #10687010). On the assay day, cell medium was removed and 100 nM SNAP-Lumi-Tb reagent was added in Opti-MEM solution. The cells were incubated at 37° C. for 1 h. Cells were washed using a plate washer in assay buffer [1×HBSS (10× Gibco, cat #14065-056), 20 mM Hepes (Gibco, cat #15630-080), 1 mM CaCl2 (Fluka, cat #21114-1L), 1 mM MgCl2 (Ambion, cat #AM9530G) pH7.4], and 20 μL buffer with 0.1% BSA was added to each well. After leaving cells to equilibrate for ˜15 min at 37° C., 10 μL of Fluorescein (sodium salt, Sigma, cat #F6377, diluted in buffer) was added at 25 μM final concentration. To generate triplicate dose response curves, compounds were serially diluted 3-fold in assay buffer, then added to the cell assay plate to a final volume of 40 μL and final top concentrations starting at 30 μM. In the same plate and assay buffer as the tested compounds, a GLP1 (7-36) peptide (Bachem, cat #H-6795) control curve was included at a final top concentration of 1 μM in order to establish EC100. EC0 wells with buffer only were also included. The plate FRET fluorescence was measured immediately using a Perkin Elmer Envision with LANCE/DELFIA D400 single mirror, excitation filter X320, and emission filters M615_203 (donor emission) and M515 (acceptor emission), and then measured every 30 min. […] Plates were kept at 37° C. between reads. Data was expressed as the ratio of donor/acceptor emissions using Microsoft Excel and plotted in GraphPad Prism. In order to determine EC50 and Emax for internalization, data was calculated and expressed as percent of the GLP1 (7-36) EC100 control wells: [(sample signal−mean EC0 signal)/(mean EC100 of GLP1 (7-36) signal−mean EC0 signal)]*100 using Microsoft Excel. Curve fitting for EC50 determinations was performed using GraphPad Prism. The 4-parameter logistic model, Hill slope was used:
Y=Bottom+(Top−Bottom)/(1+10^((Log EC50−X)*Hill Slope)), […]

Series [3] is described as follows: Pharmacokinetics in C57BL/6 mice (i.v. and oral). The note with it: male, C57BL/6, mouse, whole blood. The method, then:
Blood concentration versus time profiles were obtained from 2 groups of 3 male mice. The compound was administered intravenously (i.v.) by bolus injection (5 mL/kg) at a dose of 1 mg/kg in N-methyl-2-pyrrolidone (10%) and 4% bovine serum albumins (BSA) in phosphate-buffered saline (PBS) (90%) or orally administered at a dose of 3 mg/kg (10 mL/kg) as a homogenous suspension of Water (99.4%), Tween 80 (0.1%) and methylcellulose (0.5%). Following compound administration, blood (10 μL/time point) were collected by puncture of the tail vein into ethylenediaminetetraacetic (EDTA)-coated tubes, at 0.083 (i.v. only), 0.25, 0.5, 1, 3, 7, & 24 hours post dose.
Bioanalysis: An aliquot of 10 μL of blood sample and matrix calibration standards were added to a 96-well plate. The samples were extracted using a protein precipitation procedure with addition of 80 μL acetonitrile containing internal standard. The samples were vortexed and centrifuged at 3000 rpm for 5 minutes. A 70 μL aliquot of supernatant was transferred to a clean 96-well plate and a 70 μL of water was added to each well and vortexed. Samples were analyzed and quantified by LC-MS/MS using the conditions outlined below.
• Mass Spectrometer: AP16500+ • Liquid Chromatograph: Agilent 1290 for Compound 3; Shimadzu LC30 AD for Compound 5 • Autosampler (ALS): Agilent 1290 for Compound 3; Shimadzu SIL30AC for Compound 5
• LC Column Acquity BEH C18, 50×2.1 mm, 1.7 μm • Solvent A: • 5:95:0.1 (v:v:v) Acetonitrile:Water:Formic Acid for Compound 3 • 100:0.1 (v:v) Water:Formic acid for Compound 5 • Solvent B: • 50:50:0.1 (v:v:v) Acetonitrile:Methanol:Formic Acid for Compound 3 • 100:0.1 (v:v) Acetonitrile:Formic acid for Compound 5 • Injection Volume [μL]: 1 for Compound 5; 20 for Compound 3 • Column Oven Temp. [° C.]: 50 Compound 3; 40 for Compound 5 • ALS Temp. [° C.]: 5
• Ion Source: TIS • Polarity: Positive • Temperature: 550 • Gas 1: 55 • Gas 2: 55 • Curtain Gas: 20 • Ion Spray Voltage [V]: 5500 for Compound 5; 4500 for Compound 3 • CAD Gas: 9

The mark [4] stands for this setting: HEK293-SNAP-hGLP1R-GloSensor cells, cAMP, normalized to GLP1(7-36) maximum response.
Setting [5] is: HEK293-SNAP-hGLP1R-GloSensor cells.

Structures are written as SMILES. Like-named read-outs stand apart in the source and are kept apart here.

Six compounds from patent publication US20240182456A1, “2-((4-((S)-2-(4-CHLORO-2-FLUOROPHENYL)-2-METHYLBENZO[D][1,3]DIOXOL-4-YL)PIPERIDIN-1-YL)METHYL)-1-(((S)-OXETAN-2-YL)METHYL)-1H-IMIDAZOLE DERIVATIVES AS ACTIVATORS OF THE GLP1 RECEPTOR FOR THE TREATMENT OF OBESITY” (Novartis AG, priority 2021, published 2024) can be followed below.

Sequence of human GLP1R (P43220 24-463): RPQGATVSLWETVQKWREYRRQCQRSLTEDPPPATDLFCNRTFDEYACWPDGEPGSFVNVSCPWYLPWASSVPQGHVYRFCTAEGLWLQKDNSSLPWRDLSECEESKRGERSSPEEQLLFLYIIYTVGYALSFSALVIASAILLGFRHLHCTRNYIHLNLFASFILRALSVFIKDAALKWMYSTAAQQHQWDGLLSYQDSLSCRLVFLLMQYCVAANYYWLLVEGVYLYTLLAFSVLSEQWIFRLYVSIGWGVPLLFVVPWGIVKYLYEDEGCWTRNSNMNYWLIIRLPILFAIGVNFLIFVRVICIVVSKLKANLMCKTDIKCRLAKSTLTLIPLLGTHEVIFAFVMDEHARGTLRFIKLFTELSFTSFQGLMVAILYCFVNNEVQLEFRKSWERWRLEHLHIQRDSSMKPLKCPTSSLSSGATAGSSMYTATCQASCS
Sequence of human GLP1R (hGLP1R) (P43220 24-463): as above

`Cc1nc(CN2CCC(c3cccc4c3O[C@@](C)(c3ccc(Cl)cc3F)O4)CC2)n(C[C@@H]2CCO2)c1C(=O)NCC(=O)O` [Compound C-16, (2-((4-((S)-2-(4-chloro-2-fluorophenyl)-2-methylbenzo[d][1,3]dioxol-4-yl)piperidin-1-yl)methyl)-4-methyl-1-(((S)-oxetan-2-yl)methyl)-1H-imidazole-5-carbonyl)glycine]: the results for the Emax in series [1] (setting [4]) and in series [2] were 105% and 8%, respectively. The results for the half-maximal effective concentration (EC50) in series [1] (setting [5]) and in series [2] were 8.49 nM and over 30000 nM, respectively.

As to `Cc1c(/C=C/C(=O)O)nc(CN2CCC(c3cccc4c3O[C@@](C)(c3ccc(Cl)cc3F)O4)CC2)n1C[C@@H]1CCO1` [Compound C-6, (E)-3-(2-((4-((S)-2-(4-chloro-2-fluorophenyl)-2-methylbenzo[d][1,3]dioxol-4-yl)piperidin-1-yl)methyl)-5-methyl-1-(((S)-oxetan-2-yl)methyl)-1H-imidazol-4-yl)acrylic acid], the Emax in series [1] (setting [4]) came to 105%; in series [2], 5%. For the same compound, the EC50 in series [1] (setting [5]) is 6.72 nM; in series [2], over 30000 nM.

With `C[C@]1(c2ccc(Cl)cc2F)Oc2cccc(C3CCN(Cc4nc(C(F)(F)F)c(-c5nnn[nH]5)n4C[C@@H]4CCO4)CC3)c2O1` [Compound C-24, 4-((S)-2-(4-chloro-2-fluorophenyl)-2-methylbenzo[d][1,3]dioxol-4-yl)-1-((1-(((S)-oxetan-2-yl)methyl)-5-(1H-tetrazol-5-yl)-4-(trifluoromethyl)-1H-imidazol-2-yl)methyl)piperidine], the 50% effective concentration (EC50) was 0.784 nM in series [1] (setting [5]) and over 30000 nM in series [2]. Also, the Emax was 112% in series [1] and -3% in series [2].

As to `Cc1c(-c2nc(=O)o[nH]2)nc(CN2CCC(c3cccc4c3O[C@@](C)(c3ccc(Cl)cc3F)O4)CC2)n1C[C@@H]1CCO1` [Compound C-21, 3-(2-((4-((S)-2-(4-chloro-2-fluorophenyl)-2-methylbenzo[d][1,3]dioxol-4-yl)piperidin-1-yl)methyl)-5-methyl-1-(((S)-oxetan-2-yl)methyl)-1H-imidazol-4-yl)-1,2,4-oxadiazol-5(2H)-one], the Emax came out at 104% in series [1] (setting [4]) and 13% in series [2]. Also, the concentration for a half-maximal effect (EC50) in series [1] (setting [5]) came to 0.297 nM; in series [2] it was 1790 nM.

In series [3] (iv, 1 mg/kg), `C[C@]1(c2ccc(Cl)cc2F)Oc2cccc(C3CCN(Cc4ncc(/C=C/C(=O)O)n4C[C@@H]4CCO4)CC3)c2O1` [Compound 1] showed an area under the curve AUC(0-inf) of 509 ± 389 nM·h, a Vd of 4.83 ± 1.79 L/kg, a clearance of 4.94 ± 3.1 L/h/kg and a half-life of 1.06 ± 0.141 h. In series [3] (po, 3 mg/kg), the AUC(0-inf) was 538 ± 136 nM·h, the peak concentration (Cmax) came out at 0.24 ± 0.0754 µM, the Tmax amounted to 0.75 ± 0.434 h and the half-life was 1.22 ± 0.305 h.

Turning to `Cc1nc(CN2CCC(c3cccc4c3O[C@@](C)(c3ccc(Cl)cc3F)O4)CC2)n(C[C@@H]2CCO2)c1/C=C/C(=O)O` [Compound 5], in series [3] (iv, 1 mg/kg), the AUC(0-inf) was determined as 5020 ± 629 nM·h, the Vd was 0.604 ± 0.02 L/kg, the clearance came to 0.346 ± 0.0427 L/h/kg and the half-life was 1.42 ± 0.121 h. Besides, in series [3] (po, 3 mg/kg), the AUC(0-inf) came out at 7910 ± 764 nM·h, the Cmax was determined as 1.06 ± 0.45 µM, the Tmax amounted to 1 h and the half-life is 2.82 ± 0.74 h.
